Consider three molecules from ChEMBL document CHEMBL3638598, “Pyrazolo pyrimidine derivatives” (2014).

For this experiment, the target named is G-prodeshotein coupled receptor 4 (Homo sapiens, UniProt P46093). The experiment is described as follows: Radio Ligand Binding Assay: Serial dilutions of compounds (stock in 10 mM DMSO) are prepared by first diluting the compounds in DMSO followed by a 1:50 dilution into assay buffer (10 mM HEPES, pH 8.0, 100 mM NaCl, 5 mM MgCl2, 1 mM CaCl2, 0.5% fatty acid-free BSA, 0.05% Tween-20). […] The desired amount of membranes (20 μg/well) is diluted with assay buffer. […] 100 μL of the membrane-suspension is added and the plate stirred for 60 minutes.
G-prodeshotein coupled receptor 4, sequence (P46093 whole entry): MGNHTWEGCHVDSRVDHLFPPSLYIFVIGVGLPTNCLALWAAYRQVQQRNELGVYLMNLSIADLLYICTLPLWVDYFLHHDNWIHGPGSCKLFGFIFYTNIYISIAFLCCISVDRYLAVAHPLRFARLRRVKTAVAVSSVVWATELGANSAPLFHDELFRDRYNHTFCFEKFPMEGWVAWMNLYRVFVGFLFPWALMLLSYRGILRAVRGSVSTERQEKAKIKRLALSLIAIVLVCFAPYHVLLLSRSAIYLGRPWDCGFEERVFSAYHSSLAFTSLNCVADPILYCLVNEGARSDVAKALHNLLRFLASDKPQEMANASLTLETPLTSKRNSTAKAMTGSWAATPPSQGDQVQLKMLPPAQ

Turning to `CCc1nn2c(C)cc(C)nc2c1Cc1ccc(OCC2CCNCC2)cc1`, the IC50 (in general, the midpoint of a concentration-inhibition curve) was determined as 22 nM. This counts as double-digit nanomolar. Then `CCc1nn2c(C)cc(C)nc2c1Cc1ccc(OC[C@H]2CC[C@@H](N)CC2)cc1`, with 35 nM; and `CCc1nn2c(C)cc(C)nc2c1Cc1ccc(OC[C@H]2CC[C@@H](NC(=O)[C@H]3NCC[C@H]3O)CC2)cc1`, with 54 nM.
